Experimental data taken from paper PMC4280362 (Biochimie, 2014).

Assays:
[1] = target: T1, Isovaleryl-CoA dehydrogenase (IVD) (Homo sapiens, UniProt P26440); test: anaerobic UV/visible spectral titration; type: binding
T1 sequence (P26440 33-426): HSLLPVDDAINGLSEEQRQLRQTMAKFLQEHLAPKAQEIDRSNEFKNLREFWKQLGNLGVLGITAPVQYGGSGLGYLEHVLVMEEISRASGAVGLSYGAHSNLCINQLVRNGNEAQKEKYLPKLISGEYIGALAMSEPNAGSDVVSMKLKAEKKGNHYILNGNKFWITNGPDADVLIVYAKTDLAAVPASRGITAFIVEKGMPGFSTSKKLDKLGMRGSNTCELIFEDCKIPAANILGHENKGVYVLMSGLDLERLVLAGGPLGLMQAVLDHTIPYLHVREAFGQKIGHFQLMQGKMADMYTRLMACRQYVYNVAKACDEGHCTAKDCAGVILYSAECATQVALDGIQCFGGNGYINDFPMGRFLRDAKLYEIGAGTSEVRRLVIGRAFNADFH

[2] = target: T2, recombinant human isovaleryl-CoA dehydrogenase, CoA-persulfide-free (human, UniProt P26440 33-426); test: competitive inhibition of enzyme activity
T2 sequence: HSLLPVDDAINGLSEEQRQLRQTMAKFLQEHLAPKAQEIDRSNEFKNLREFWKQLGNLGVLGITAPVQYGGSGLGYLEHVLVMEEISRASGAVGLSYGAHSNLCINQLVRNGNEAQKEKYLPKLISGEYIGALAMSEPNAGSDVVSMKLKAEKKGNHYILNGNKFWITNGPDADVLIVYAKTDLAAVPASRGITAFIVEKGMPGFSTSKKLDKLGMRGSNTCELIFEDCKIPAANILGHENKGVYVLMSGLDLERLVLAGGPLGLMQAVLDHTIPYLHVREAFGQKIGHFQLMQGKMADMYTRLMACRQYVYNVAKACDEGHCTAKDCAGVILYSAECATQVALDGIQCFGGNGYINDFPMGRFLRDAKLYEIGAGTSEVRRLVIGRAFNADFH

Molecule	Kd [1]	Ki [2]
CC(C)CC(=O)SCCNC(=O)CCNC(=O)[C@H](O)C(C)(C)COP(=O)(O)OP(=O)(O)OC[C@H]1O[C@@H](n2cnc3c(N)ncnc32)[C@H](O)[C@@H]1OP(=O)(O)O [isovaleryl-CoA]	0.54 µM	
RYATLPNIMKAK [ETF docking peptide, ETF βArg191-βLys202]		1500 µM
